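All cell lines were grown in 96-well plates and treated with compound for 48 hours. GI50: concentration for 50% inhibition of growth. TGI: concentration producing complete growth inhibition.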
Legend:
Assay in all cases: growth of human tumour cells (NCI), 48 h
[1] = tested on: HCT-15 colon
[2] = tested on: EKVX NSCLC
[3] = tested on: CAKI-1 renal
[4] = tested on: SK-OV-3 ovarian
[5] = tested on: SNB-75 CNS
[6] = tested on: U251 CNS
[7] = tested on: LOX IMVI melanoma
[8] = tested on: SF-295 CNS
[9] = tested on: CCRF-CEM leukemia
[10] = tested on: OVCAR-3 ovarian
[11] = tested on: NCI/ADR-RES ovarian
[12] = tested on: SW-620 colon
[13] = tested on: SF-268 CNS
[14] = tested on: HS 578T breast
[15] = tested on: UO-31 renal
[16] = tested on: SK-MEL-5 melanoma
[17] = tested on: OVCAR-8 ovarian
[18] = tested on: SK-MEL-2 melanoma
[19] = tested on: SN12C renal
[20] = tested on: SR leukemia
[21] = tested on: MCF7 breast
[22] = tested on: SK-MEL-28 melanoma
[23] = tested on: MDA-MB-231 breast
[24] = tested on: HOP-92 NSCLC
[25] = tested on: TK-10 renal
[26] = tested on: A549 NSCLC
[27] = tested on: NCI-H460 lung
[28] = tested on: PC-3 prostate
[29] = tested on: OVCAR-5 ovarian
[30] = tested on: NCI-H226 lung
[31] = tested on: RPMI-8226 leukemia
[32] = tested on: 786-0 renal
[33] = tested on: RXF 393 renal
[34] = tested on: M14 melanoma
[35] = tested on: MOLT-4 leukemia
[36] = tested on: UACC-257 melanoma
[37] = tested on: SNB-19 CNS
[38] = tested on: HL-60(TB) leukemia
[39] = tested on: IGROV1 ovarian
[40] = tested on: SF-539 CNS
[41] = tested on: KM12 colon
[42] = tested on: NCI-H23 lung
[43] = tested on: DU-145 prostate
[44] = tested on: BT-549 breast
[45] = tested on: MALME-3M melanoma
[46] = tested on: OVCAR-4 ovarian
[47] = tested on: COLO 205 colon
[48] = tested on: HOP-62 NSCLC
[49] = tested on: T-47D breast
[50] = tested on: HT29 colon
[51] = tested on: MDA-MB-435
[52] = tested on: ACHN renal
[53] = tested on: UACC-62 melanoma
[54] = tested on: NCI-H522 lung
[55] = tested on: K-562 leukemia

SMILES: COC(=O)C1=C(C(=O)OC)SC(=C(Cl)C(=S)Oc2ccccc2N)S1
- GI50 [1]: 16.4 µM
- TGI [1]: > 50 µM
- GI50 [2]: 46.5 µM
- TGI [2]: > 50 µM
- GI50 [3]: 13.5 µM
- TGI [3]: 40.7 µM
- GI50 [4]: 22.3 µM
- TGI [4]: > 50 µM
- GI50 [5]: 35.1 µM
- TGI [5]: > 50 µM
- GI50 [6]: 16.2 µM
- TGI [6]: > 50 µM
- GI50 [7]: 9.16 µM
- TGI [7]: 22.3 µM
- GI50 [8]: 13.7 µM
- TGI [8]: 41.1 µM
- GI50 [9]: > 50 µM
- TGI [9]: > 50 µM
- GI50 [10]: 10.8 µM
- TGI [10]: 36.1 µM
- GI50 [11]: 13.9 µM
- TGI [11]: 37.1 µM
- GI50 [12]: 24.2 µM
- TGI [12]: > 50 µM
- GI50 [13]: 15.9 µM
- TGI [13]: > 50 µM
- GI50 [14]: 15.6 µM
- TGI [14]: 34.2 µM
- GI50 [15]: 10.6 µM
- TGI [15]: 35.6 µM
- GI50 [16]: 8.43 µM
- TGI [16]: 17.7 µM
- GI50 [17]: 18.7 µM
- TGI [17]: > 50 µM
- GI50 [18]: 10.2 µM
- TGI [18]: 26.1 µM
- GI50 [19]: 18.2 µM
- TGI [19]: > 50 µM
- GI50 [20]: 12.9 µM
- TGI [20]: 35 µM
- GI50 [21]: 5.95 µM
- TGI [21]: 17.3 µM
- GI50 [22]: > 50 µM
- TGI [22]: > 50 µM
- GI50 [23]: 28 µM
- TGI [23]: > 50 µM
- GI50 [24]: 37.3 µM
- TGI [24]: > 50 µM
- GI50 [25]: 49.5 µM
- TGI [25]: > 50 µM
- GI50 [26]: 18.1 µM
- TGI [26]: > 50 µM
- GI50 [27]: 13.4 µM
- TGI [27]: > 50 µM
- GI50 [28]: 17.9 µM
- TGI [28]: > 50 µM
- GI50 [29]: 37 µM
- TGI [29]: > 50 µM
- GI50 [30]: 20.5 µM
- TGI [30]: > 50 µM
- GI50 [31]: 17.9 µM
- TGI [31]: > 50 µM
- GI50 [32]: 12.3 µM
- TGI [32]: > 50 µM
- GI50 [33]: 8.38 µM
- TGI [33]: > 50 µM
- GI50 [34]: 10.8 µM
- TGI [34]: 29.4 µM
- GI50 [35]: 25 µM
- TGI [35]: > 50 µM
- GI50 [36]: 9.44 µM
- TGI [36]: 18.8 µM
- GI50 [37]: 25.8 µM
- TGI [37]: > 50 µM
- GI50 [38]: 14.5 µM
- TGI [38]: > 50 µM
- GI50 [39]: 3.79 µM
- TGI [39]: 14.5 µM
- GI50 [40]: 13.4 µM
- TGI [40]: 35.5 µM
- GI50 [41]: > 50 µM
- TGI [41]: > 50 µM
- GI50 [42]: 10.6 µM
- TGI [42]: > 50 µM
- GI50 [43]: 19.8 µM
- TGI [43]: > 50 µM
- GI50 [44]: 10.2 µM
- TGI [44]: 21.6 µM
- GI50 [45]: 18.6 µM
- TGI [45]: > 50 µM
- GI50 [46]: > 50 µM
- TGI [46]: > 50 µM
- GI50 [47]: 26.7 µM
- TGI [47]: > 50 µM
- GI50 [48]: 20.1 µM
- TGI [48]: 42.1 µM
- GI50 [49]: > 50 µM
- TGI [49]: > 50 µM
- GI50 [50]: 33.7 µM
- TGI [50]: > 50 µM
- GI50 [51]: 8.94 µM
- TGI [51]: 17 µM
- GI50 [52]: 15 µM
- TGI [52]: > 50 µM
- GI50 [53]: 16.5 µM
- TGI [53]: > 50 µM
- GI50 [54]: 10.4 µM
- TGI [54]: 31.3 µM
- GI50 [55]: 15.8 µM
- TGI [55]: > 50 µM
